How the values were obtained:
[1] = molecular target: T1, QsdR (Rhodococcus erythropolis, UniProt A0A0C2W9F0); assay: EMSA with biotinylated qsdR-qsdA intergenic DNA, release of DNA; type: binding; details: ligand/QsdR molecular ratio 0.1 to 100, 3 μg QsdR, 0.4 ng DNA, room temperature
T1 construct: gene I3517_23075; qsdR ORF (563 bp NdeI-BamHI fragment) in pET19, His-tagged, E. coli BL21DE3, Ni-NTA; about 20 kDa; dimer
T1 sequence (A0A0C2W9F0 1-186): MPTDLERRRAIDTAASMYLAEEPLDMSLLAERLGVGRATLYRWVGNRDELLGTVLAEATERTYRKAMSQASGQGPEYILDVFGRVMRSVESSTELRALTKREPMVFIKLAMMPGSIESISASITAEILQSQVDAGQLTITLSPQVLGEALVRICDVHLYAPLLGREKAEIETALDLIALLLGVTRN

[2] = molecular target: T2, QsdR (His-tagged) (Rhodococcus erythropolis R138?) (UniProt A0A0C2W9F0); assay: EMSA; details: LightShift Chemiluminescent EMSA Kit buffer (composition, salt, pH not stated); QsdR in Qiagen elution buffer with 50% glycerol; 20 min at room temperature …
T2 sequence: T1 sequence (A0A0C2W9F0 1-186)

## N[C@H]1CCOC1=O [HSL, homoserine lactone]
[1]; HSL in 10 mM Tris pH 7, positive control
  EMSA with biotinylated qsdR-qsdA intergenic DNA, release of DNA: inhibition of the DNA-binding activity of QsdR was also observed in the presence of HSL

## GGTAGGCATCGGGACATTCTCTCCGGTTGTCCGGTACTGCACAATTTCGGCGGTCGAACAGAGGTGGGCTTCGGGTGGCTCGAGCCTATTGACGAACCAAGCGACGTGAGACACACTAGCTCATTGTCTCATGTTAGTGATGGCGATCACAGTCAGGGGTTCGATCGATGAG (double strand) [qsdR-qsdA intergenic DNA fragment]
[2]
  binding: binds

## CCC1CCC(=O)O1 (stereo not drawn) [GCL, γ-caprolactone]
[1]; GCL in methanol-water 20:80
  EMSA with biotinylated qsdR-qsdA intergenic DNA, release of DNA: The addition of increasing amounts of GCL led to a proportional increase in the amount

From publication PMC6476934, “A Flavor Lactone Mimicking AHL Quorum-Sensing Signals Exploits the Broad Affinity of the QsdR Regulator to Stimulate Transcription of the Rhodococcal qsd Operon Involved in Quorum-Quenching and Biocontrol Activities” (Frontiers in Microbiology, 2019)
